This assay deals with PC12 cells. Put plainly: MTT assay, PC12 survival under serum deprivation-induced stress. It counts as cell-based, rat. The settings on record: for O.D.: 2 days; for Average (O.D. relative to RPMI): RPMI = 100%. How it is done: Cell injuries under condition of serum deprivation-induced stress and oxidative stress were measured by MTT assay. For MTT assay, Cells were seeded into N2 medium in an amount of 7.5×10^3 cells, and then a neurotoxin or a nerve growth factor was added thereto to differentiate the cells and then 0.1 volume of 4 mg/ml MTT was further added. The mixture was stored at 37° C. for 3-4 hours. After 100 μl of solubilization buffer was added to the mixture and then stored for 24 hours, O.D. values were measured by ELISA assay.
NGF, increasing cell survival and inducing cell differentiation, was used as a positive control. After the cells were treated with berberine (0.25˜3 μg/ml), the cells were cultured for 2 days to induce nerve regeneration (see, Table 3 and FIG. 5a).

Molecules are shown by their SMILES.

Take `COc1ccc2cc3[n+](cc2c1OC)CCc1cc2c(cc1-3)OCO2` [Berberine, 7,8,13,13a-tetradihydro-9,10-dimethoxy-2,3-(methylenedioxy) berbinium]: the O.D. is, setting by setting: (RPMI + berberine 0.25 μg/ml) 0.203; (RPMI + berberine 1.5 μg/ml) 0.239; (RPMI + berberine 3 μg/ml) 0.262. For the same compound, the “Average (O.D. relative to RPMI)” value is, setting by setting: (RPMI + berberine 0.25 μg/ml) 121%; (RPMI + berberine 1.5 μg/ml) 142%; (RPMI + berberine 3 μg/ml) 156%. The “cell survival rate versus control group” value (serum deprivation, berberine (1.5˜3 μg/ml elsewhere in the source)) was 1.5 times.

Source of the values: patent US20040097534A1, “Composition for the protection and regeneration of nerve cells containing berberine derivatives” (EUGENBIO INC., priority 2001, published 2004).
